Assays:
anti-ILA Antiserum [1] = assay: SAFIA (indirect competitive particle-based suspension array fluorescence immunoassay), ILA channel; type: binding, Kaninchen; conditions: for Molare Kreuzreaktivität ILA (SAFIA): method of Abraham, anti-ILA antiserum
Method: (§1) Indirekt kompetitiver partikelbasierter Immunoassay: Alle Immunoassays wurden in schwarzen, nicht-bindenden Mikrotiterplatten mit flachem Boden (Greiner Bio-One) durchgeführt. Zum Verdünnen der Suspension der Mikropartikel (Beads) und der biochemischen Reagenzien wurde TRIS-gepufferte Salzlösung (10 mM Tris (hydroxymethyl)aminomethan, 150mM NaCl, pH = 8,5) verwendet. Zunächst wurden 50 µL der Probe oder des Standards und 50 µl einer Mischung der primären (prim.) Antikörper anti-CAF (272 µg/L), anti-CBZ (350 µg/L), anti-DCF (20 µg/L), anti-OTA (50 ng/L), anti-ZON (250µg/L) und anti-ILA (Verdünnung des (polyklonalen) Antiserums: 1:10.000) während 5 Minuten auf einem Kreisschüttler (Titra-max 101, Heidolph) bei 750 U/min geschüttelt. Zur Kalibrierung wurde eine 8-Punkt Verdünnungsserie eines Mischstandards jedes Analyten umfassend Konzentrationen von 10.000 µg/L bis 1 ng/L verwendet, der durch serielle Verdünnung einer methanolischen Stammlösung von 1 mg/mL jedes einzelnen Analyten mit ultrareinem Wasser hergestellt worden war. Danach wurden 20 µL einer Mischung der fluoreszenzkodierten, Hapten-gekoppelten Mikropartikel (Mikropartikel) zugesetzt und für weitere 5 min geschüttelt. Um ein Messsignal der gebundenen Antikörper zu erhalten, wurden 100 µL Alexa Fluor™488 Ziege anti-mouse (und anti-Kaninchen) IgG(H+L), je 2 µg/mL Antikörper (dye 2 red-kodierte Partikel), oder Alexa Fluor™647 Ziege anti-Maus (und anti-Kaninchen) IgG(H+L), je 2 µg/ml Antikörper (dye 1 green kodierte Partikel) den Kern/Schale-Partikeln zugesetzt und für 15 min inkubiert.
(§2) Abschließend wurden, um den Assay zu stoppen, 100 µL einer 6%-igen Formaldehyd-Lösung (aus 37% HCHO/10-15% MeOH Stammlösung, (w/w)), 2% MeOH und 0.01% SDS in PBS zugesetzt und für mindestens 10 min inkubiert. Die Mischung jedes Kavität wurde in einem BD Accuri C6 oder BD AccuriC6 plus Durchflusszytometer bei einer Flussrate von 66 µL/min während 30 s analysiert, wobei ein Schwellwert von 80.000 a.u. am FSC Detektor und ein Probeninjektionsport (SIP)- Reinigungszyklus zwischen den einzelnen Durchläufen eingeschoben wurde, um ein Verschleppen (Übertrag) zu verhindern. Standards und Proben wurden zufällig über die Mikrotiterplatte verteilt angeordnet, um einen Einfluss von Signaldrift und Randeffekte möglichst auszuschließen. Zum Testen der Bindungs-Selektivität wurde jeder Antikörper separat mit jedem haptenmodifizierten (d.h. Haptengekoppeltem) Set der verwendeten Kern/Schale-Mikropartikel inkubiert. Die hier als Fixierlösung verwendete Lösung umfasst bevorzugt Formaldehyd im Konzentrationsbereich 1-10 % vol/vol), Methanol (1-10 % vol/vol) und Natriumdodecylsulfat (0,001-10 % m/m). Statt Formaldehyd können auch andere Aldehyde mit quervernetzenden Eigenschaften (z.B. Glyoxal, Glutarladehyd, Malondialdehyd, Dipalaldehyd) eingesetzt werden. Statt Natriumdodecylsulfat können andere Detergenzien (z.B. Tween20, TitronX, Genapol, CTAB) verwendet werden.
(§3) Datenbehandlung: Alle zytometrischen Daten wurden zunächst nach Streuwerten gegated (FSC/SSC (gate "size": vgl. Fig. 2E) um Partikelaggregate von der Berechnung auszuschließen. Danach wurden vier Gates am FSC/FL-4 (dye 2 red kodierte Partikel, Fig. 2F) oder FSC/FL-1 (dye 1 green kodierte Partikel) verwendet, um die Partikel zu dekodieren und die Analyt-bezogene mittlere Fuoreszenzintensität zu berechnen (vgl. Fig. 2G). Mittelwerte und Standardabweichungen von Wiederholungsmessungen wurden gegen die Konzentration der entsprechenden Analyte auf einer logarithmischen Skale abgetragen. Die von Rodbard eingeführte (Rodbard, D. Biometrics 1975, 31, 599-600) Vier-Parameter-Eichkurve wurde nach der Methode der kleinsten Fehlerquadrate mittels Origin® ver. 9 Grafik-Software gefittet. Ausreißer wurden mittels Grubbs Test bei einem SignifikanzNiveau α = 0,05 identifiziert und eliminiert. Welch's t-Test wurde mit einem Signifikanzniveau von α = 0,05 unter Zuhilfenahme von Origin® 9 verwendet. […]

anti-CBZ mAb [2] = assay: SAFIA (indirect competitive particle-based suspension array fluorescence immunoassay), CBZ channel; type: binding, Maus; conditions: for Molare Kreuzreaktivität CBZ (SAFIA): method of Abraham, anti-CBZ antibody
Method: as §1, §2, §3

anti-CBZ mAb [3] = conditions: anti-CBZ antibody; cited from earlier work
[4] = tested on: anti-CAF Antikörper (mAb); assay: SAFIA (indirect competitive particle-based suspension array fluorescence immunoassay), CAF channel; type: binding, Maus; conditions: for Molare Kreuzreaktivität CAF (SAFIA): method of Abraham, anti-CAF antibody
Method: as §1, §2, §3

anti-DCF mAb [5] = assay: SAFIA (indirect competitive particle-based suspension array fluorescence immunoassay), DCF channel; type: binding, Maus; conditions: for Molare Kreuzreaktivität DCF (SAFIA): method of Abraham, anti-DCF antibody
Method: as §1, §2, §3

anti-DCF mAb [6] = conditions: anti-DCF antibody; cited from earlier work
[7] = tested on: anti-CAF Antikörper (mAb); conditions: anti-CAF antibody; cited from earlier work
anti-ILA Antiserum [8] = conditions: cited from earlier work
[9] = calibration curve, dye 2 red coded particles, Alexa Fluor™488 secondary antibody

## NC(=O)N1c2ccccc2C=Cc2ccc(O)cc21 [3-Hydroxycarbamazepin]
anti-ILA Antiserum [1]
  Molare Kreuzreaktivität ILA (SAFIA): < 0,1%
anti-CBZ mAb [2]
  Molare Kreuzreaktivität CBZ (SAFIA): 20,2%
anti-CBZ mAb [3]
  Molare Kreuzreaktivität CBZ (ELISA): 5,1%
[4]
  Molare Kreuzreaktivität CAF (SAFIA): <0,1%
anti-DCF mAb [5]
  Molare Kreuzreaktivität DCF (SAFIA): <0,1%

## O=C(O)Cc1ccccc1Nc1c(Cl)cc(O)cc1Cl [4'-Hydroxydiclofenac]
anti-ILA Antiserum [1]
  Molare Kreuzreaktivität ILA (SAFIA): <0,1%
anti-CBZ mAb [2]
  Molare Kreuzreaktivität CBZ (SAFIA): <0,1%
[4]
  Molare Kreuzreaktivität CAF (SAFIA): <0,1%
anti-DCF mAb [5]
  Molare Kreuzreaktivität DCF (SAFIA): <0,1%
anti-DCF mAb [6]
  Molare Kreuzreaktivität DCF (ELISA): 11%

## O=C(O)Cc1cc(O)ccc1Nc1c(Cl)cccc1Cl [5'-Hydroxydiclofenac]
anti-ILA Antiserum [1]
  Molare Kreuzreaktivität ILA (SAFIA): <0,1%
anti-CBZ mAb [2]
  Molare Kreuzreaktivität CBZ (SAFIA): <0,1%
[4]
  Molare Kreuzreaktivität CAF (SAFIA): <0,1%
anti-DCF mAb [5]
  Molare Kreuzreaktivität DCF (SAFIA): 9,8%
anti-DCF mAb [6]
  Molare Kreuzreaktivität DCF (ELISA): 13%

## NC(=O)N1c2ccccc2C(O)C(O)c2ccccc21 (centres unmarked) [10,11-Dihydroxy-carbamazepin]
anti-CBZ mAb [2]
  Molare Kreuzreaktivität CBZ (SAFIA): 0,3%
anti-CBZ mAb [3]
  Molare Kreuzreaktivität CBZ (ELISA): 0,1%
[4]
  Molare Kreuzreaktivität CAF (SAFIA): <0,1%
anti-DCF mAb [5]
  Molare Kreuzreaktivität DCF (SAFIA): < 0,1%

## NC(=O)N1c2ccccc2C2OC2c2ccccc21 (centres unmarked) [10,11-Epoxycarbamazepin]
anti-ILA Antiserum [1]
  Molare Kreuzreaktivität ILA (SAFIA): < 0,1%
anti-CBZ mAb [2]
  Molare Kreuzreaktivität CBZ (SAFIA): 117%
anti-CBZ mAb [2]; listed as Carbamazepin-10,1-L-epoxid
  Molare Kreuzreaktivität CBZ (SAFIA): 118%
anti-CBZ mAb [3]
  Molare Kreuzreaktivität CBZ (ELISA): 140%
[4]
  Molare Kreuzreaktivität CAF (SAFIA): <0,1%
anti-DCF mAb [5]
  Molare Kreuzreaktivität DCF (SAFIA): <0,1%

## O=C(O)COC(=O)Cc1ccccc1Nc1c(Cl)cccc1Cl [Aceclofenac]
anti-ILA Antiserum [1]
  Molare Kreuzreaktivität ILA (SAFIA): <0,1%
anti-CBZ mAb [2]
  Molare Kreuzreaktivität CBZ (SAFIA): <0,1%
[4]
  Molare Kreuzreaktivität CAF (SAFIA): <0,1%
anti-DCF mAb [5]
  Molare Kreuzreaktivität DCF (SAFIA): 16,6%

## Cn1c(=O)c2c(ncn2C)n(C)c1=O [CAF, Coffein]
anti-ILA Antiserum [1]
  Molare Kreuzreaktivität ILA (SAFIA): < 0,1%
[7]
  Molare Kreuzreaktivität CAF (ELISA): 100%
anti-CBZ mAb [2]
  Molare Kreuzreaktivität CBZ (SAFIA): <0,1%
[4]; [9]
  IC50 "Dye 2 Red": 1,72 ± 0,16 µg/L
[4]
  Molare Kreuzreaktivität CAF (SAFIA): 100%
anti-DCF mAb [5]
  Molare Kreuzreaktivität DCF (SAFIA): <0,1%

## NC(=O)N1c2ccccc2C=Cc2ccccc21 [CBZ, Carbamazepin]
anti-ILA Antiserum [1]
  Molare Kreuzreaktivität ILA (SAFIA): < 0,1%
anti-CBZ mAb [2]; [9]
  IC50 "Dye 2 Red": 1,13 ± 0,07 µg/L
anti-CBZ mAb [2]
  Molare Kreuzreaktivität CBZ (SAFIA): 100%
anti-CBZ mAb [3]
  Molare Kreuzreaktivität CBZ (ELISA): 100%
[4]
  Molare Kreuzreaktivität CAF (SAFIA): <0,1%
anti-DCF mAb [5]
  Molare Kreuzreaktivität DCF (SAFIA): <0,1%

## C[C@H](CCC(=O)O)[C@H]1CC[C@H]2[C@@H]3[C@H](O)C[C@@H]4C[C@H](O)CC[C@]4(C)[C@H]3C[C@H](O)[C@]12C [Cholsäure]
anti-ILA Antiserum [1]
  Molare Kreuzreaktivität ILA (SAFIA): <0,1%
anti-CBZ mAb [2]
  Molare Kreuzreaktivität CBZ (SAFIA): <0,1%
[4]
  Molare Kreuzreaktivität CAF (SAFIA): <0,1%
anti-DCF mAb [5]
  Molare Kreuzreaktivität DCF (SAFIA): <0,1%
anti-ILA Antiserum [8]
  Molare Kreuzreaktivität ILA (ELISA): <0,1%

## O=C(O)Cc1ccccc1Nc1c(Cl)cccc1Cl [DCF, Diclofenac]
anti-ILA Antiserum [1]
  Molare Kreuzreaktivität ILA (SAFIA): < 0,1%
anti-CBZ mAb [2]
  Molare Kreuzreaktivität CBZ (SAFIA): <0,1%
[4]
  Molare Kreuzreaktivität CAF (SAFIA): <0,1%
anti-DCF mAb [5]; [9]
  IC50 "Dye 2 Red": 0,05 ± 0,02 µg/L
anti-DCF mAb [5]
  Molare Kreuzreaktivität DCF (SAFIA): 100%
anti-DCF mAb [6]
  Molare Kreuzreaktivität DCF (ELISA): 100%

## C[C@H](CCC(=O)O)[C@H]1CC[C@H]2[C@@H]3CC[C@@H]4C[C@@H](O)CC[C@]4(C)[C@H]3CC[C@]12C [ILA, Isolithocholsäure]
anti-ILA Antiserum [1]; [9]
  IC50 "Dye 2 Red": 1,39 ± 0,72 µg/L
anti-ILA Antiserum [1]
  Molare Kreuzreaktivität ILA (SAFIA): 100%
anti-CBZ mAb [2]
  Molare Kreuzreaktivität CBZ (SAFIA): <0,1%
[4]
  Molare Kreuzreaktivität CAF (SAFIA): <0,1%
anti-DCF mAb [5]
  Molare Kreuzreaktivität DCF (SAFIA): <0,1%
anti-ILA Antiserum [8]
  Molare Kreuzreaktivität ILA (ELISA): 100%

## C[C@H](CCC(=O)O)[C@H]1CC[C@H]2[C@@H]3CC[C@@H]4C[C@H](O)CC[C@]4(C)[C@H]3CC[C@]12C [Lithocholsäure]
anti-ILA Antiserum [1]
  Molare Kreuzreaktivität ILA (SAFIA): 1,9%
anti-CBZ mAb [2]
  Molare Kreuzreaktivität CBZ (SAFIA): <0,1%
[4]
  Molare Kreuzreaktivität CAF (SAFIA): <0,1%
anti-DCF mAb [5]
  Molare Kreuzreaktivität DCF (SAFIA): <0,1%
anti-ILA Antiserum [8]
  Molare Kreuzreaktivität ILA (ELISA): 0,3%

## Cn1c(=O)[nH]c2ncn(C)c2c1=O [Paraxanthin]
anti-ILA Antiserum [1]
  Molare Kreuzreaktivität ILA (SAFIA): <0,1%
[7]
  Molare Kreuzreaktivität CAF (ELISA): <0,1%
anti-CBZ mAb [2]
  Molare Kreuzreaktivität CBZ (SAFIA): <0,1%
[4]
  Molare Kreuzreaktivität CAF (SAFIA): <0,1%
anti-DCF mAb [5]
  Molare Kreuzreaktivität DCF (SAFIA): <0,1%

## C[C@H](CCC(=O)NCCS(=O)(=O)O)[C@H]1CC[C@H]2[C@@H]3CC[C@@H]4C[C@H](O)CC[C@]4(C)[C@H]3CC[C@]12C [Taurolithocholsäure]
anti-ILA Antiserum [1]
  Molare Kreuzreaktivität ILA (SAFIA): <0,1%
anti-CBZ mAb [2]
  Molare Kreuzreaktivität CBZ (SAFIA): <0,1%
[4]
  Molare Kreuzreaktivität CAF (SAFIA): <0,1%
anti-DCF mAb [5]
  Molare Kreuzreaktivität DCF (SAFIA): <0,1%
anti-ILA Antiserum [8]
  Molare Kreuzreaktivität ILA (ELISA): 1,2%

## Cn1cnc2c1c(=O)[nH]c(=O)n2C [Theobromin]
anti-ILA Antiserum [1]
  Molare Kreuzreaktivität ILA (SAFIA): <0,1%
[7]
  Molare Kreuzreaktivität CAF (ELISA): 0,13%
anti-CBZ mAb [2]
  Molare Kreuzreaktivität CBZ (SAFIA): <0,1%
[4]
  Molare Kreuzreaktivität CAF (SAFIA): 2,0%
anti-DCF mAb [5]
  Molare Kreuzreaktivität DCF (SAFIA): <0,1%

## Cn1c(=O)c2[nH]cnc2n(C)c1=O [Theophyllin]
anti-ILA Antiserum [1]
  Molare Kreuzreaktivität ILA (SAFIA): <0,1%
[7]
  Molare Kreuzreaktivität CAF (ELISA): 12,0%
anti-CBZ mAb [2]
  Molare Kreuzreaktivität CBZ (SAFIA): <0,1%
[4]
  Molare Kreuzreaktivität CAF (SAFIA): 5,8%
anti-DCF mAb [5]
  Molare Kreuzreaktivität DCF (SAFIA): <0,1%

Source: patent EP3771487A1, “METHOD FOR THE SIMULTANEOUS DETERMINATION OF VARIOUS ANALYTES IN AN ENVIRONMENTAL SAMPLE AND / OR AN AGRICULTURAL RAW MATERIAL BASED ON CORE-SHELL MICROPARTICLES” (Bundesrepublik Deutschland, vertreten durch den …, priority 2019, dated 2021)
